PMC3723632, “A Multi-targeted Drug Candidate with Dual Anti-HIV and Anti-HSV Activity” (PLoS Pathogens, 2013)
Read-outs that look alike come from different tables or passages of the source.

Experiments:
HSV DNA polymerase = target: T1, HSV DNA polymerase (Human herpesvirus 1, UniProt P04293); experiment: HSV DNA polymerase assay; type: biochemical
T1 construct: gift of M.W. Wathen (Pfizer, Kalamazoo, MI)
Experimental: (§1) The reaction mixture (40 µl) for the HSV-1 DNA polymerase and HIV-1 RT assays contained 4 µl of Premix (200 mM Tris.HCl, pH 7.5; 2 mM DTT; 30 mM MgCl2), 4 µl of BSA (5 mg/ml), 1.6 µl of activated calf thymus DNA (1.25 mg/ml), 0.8 µl of dCTP (5 mM), 0.8 µl of dTTP (5 mM), 0.8 µl of dGTP (5 mM), 2 µl of radiolabeled [^3H]dATP (1 mCi/ml) (3.2 µM), 18 µl of H2O, and 4 µl of adefovir-pp or PMEO-DAPym-pp at different concentrations (i.e., 200, 20, 2, and 0.2 µM). In the HSV DNA polymerase assays, the inhibitory effect of adefovir-pp or PMEA-DAPym-pp on herpesvirus DNA polymerase-catalyzed polymerization was also determined in the presence of radiolabeled [^3H]dGTP (1 mCi/ml; 2.8 µM), [^3H]dTTP (1 mCi/ml; 1 µM), or [^3H]dCTP (1 mCi/ml; 2.5 µM) as competing dNTP in the presence of 0.8 µl (5 mM) of the other dNTPs in the reaction mixture as described above. The reaction was started by the addition of 4 µl of recombinant HSV-1 DNA polymerase (kindly provided by M.W. Wathen, at that time at Pfizer, Kalamazoo, MI) or 4 µl of recombinant HIV-1 RT (in 20 mM Tris.HCl, pH 8.0; 1 mM DTT; 0.1 mM EDTA; 0.2 M NaCl; 40% glycerol), and the reaction mixture was incubated for 60 min (HSV-1 DNA polymerase) or 30 min (HIV-1 RT) at 37°C. Then, 1 ml of ice-cold 5% TCA in 0.02 M Na4P2O7.10 H2O was added to terminate the polymerisation reaction, after which the acid-insoluble precipitate (radiolabeled DNA) was captured onto Whatman glass fiber filters (type GF/C; GE Healthcare UK Limited, Buckinghamshire, UK) and further washed with 5% TCA and ethanol to remove free radiolabeled dNTP. Radioactivity was determined in a Perkin Elmer Tri-Carb 2810 TR liquid scintillation counter.

HIV-1 RT = target: T2, HIV-1 RT (Human immunodeficiency virus type 1 group M subtype B, UniProt P03366); experiment: HIV-1 reverse transcriptase assay; type: biochemical; settings: poly rU.dA primer/template
T2 construct: 4 µl of recombinant HIV-1 RT
Experimental: as §1, with “The reaction mixture (40 µl) for the HSV-1 DNA polymerase and HIV-1 RT assays contained 4 µl of Premix (200 mM Tris.HCl, pH 7.5; 2 mM DTT; 30 mM MgCl2), 4 µl of BSA (5 mg/ml), 1.6 µl of activated calf thymus DNA (1.25 mg/ml), 0.8 µl of dCTP (5 mM), 0.8 µl of dTTP (5 mM), 0.8 µl of dGTP (5 mM), 2 µl of radiolabeled [^3H]dATP (1 mCi/ml) (3.2 µM), 18 µl of H2O, and 4 µl of adefovir-pp or PMEO-DAPym-pp at different concentrations (i.e., 200, 20, 2, and 0.2 µM).” left out

T1 sequence (P04293 whole entry): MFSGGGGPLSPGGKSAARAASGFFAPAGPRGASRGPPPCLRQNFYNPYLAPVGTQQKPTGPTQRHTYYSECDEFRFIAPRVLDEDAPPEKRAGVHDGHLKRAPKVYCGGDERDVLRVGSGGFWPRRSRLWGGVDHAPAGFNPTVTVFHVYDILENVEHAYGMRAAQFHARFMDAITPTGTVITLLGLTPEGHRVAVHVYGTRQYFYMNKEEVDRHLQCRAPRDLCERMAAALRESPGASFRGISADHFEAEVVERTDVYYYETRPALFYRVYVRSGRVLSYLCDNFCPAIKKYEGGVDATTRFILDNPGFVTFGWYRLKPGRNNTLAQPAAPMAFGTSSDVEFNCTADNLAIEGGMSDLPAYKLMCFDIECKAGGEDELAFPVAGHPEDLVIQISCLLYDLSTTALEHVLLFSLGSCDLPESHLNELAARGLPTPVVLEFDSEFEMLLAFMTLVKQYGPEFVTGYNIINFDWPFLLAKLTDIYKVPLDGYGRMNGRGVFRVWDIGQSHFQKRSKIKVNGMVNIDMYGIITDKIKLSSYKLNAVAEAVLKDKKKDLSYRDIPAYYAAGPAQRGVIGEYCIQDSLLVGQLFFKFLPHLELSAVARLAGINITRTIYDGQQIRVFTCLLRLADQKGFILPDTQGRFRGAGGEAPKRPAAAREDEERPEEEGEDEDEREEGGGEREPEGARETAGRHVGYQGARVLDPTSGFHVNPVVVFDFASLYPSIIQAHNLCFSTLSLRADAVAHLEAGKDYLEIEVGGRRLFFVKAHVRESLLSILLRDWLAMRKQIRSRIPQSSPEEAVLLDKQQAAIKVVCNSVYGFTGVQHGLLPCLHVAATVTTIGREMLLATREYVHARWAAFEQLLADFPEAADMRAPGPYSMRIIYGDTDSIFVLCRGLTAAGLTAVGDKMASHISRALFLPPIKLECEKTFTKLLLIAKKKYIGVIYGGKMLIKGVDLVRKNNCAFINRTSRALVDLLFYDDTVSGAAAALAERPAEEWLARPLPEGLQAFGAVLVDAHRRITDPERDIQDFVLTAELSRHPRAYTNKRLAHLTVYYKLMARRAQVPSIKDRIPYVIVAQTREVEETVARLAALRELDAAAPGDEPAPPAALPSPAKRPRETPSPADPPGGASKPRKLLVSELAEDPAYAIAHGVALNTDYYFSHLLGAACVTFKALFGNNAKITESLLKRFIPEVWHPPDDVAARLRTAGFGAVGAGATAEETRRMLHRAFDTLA

Row | Compound | IC50 (HSV DNA polymerase; [3H]dATP as competing substrate, gapped calf thymus DNA, read-out: IC50 (converted)) | IC50 (HSV DNA polymerase; [3H]dCTP as competing substrate, gapped calf thymus DNA, read-out: IC50 (converted)) | IC50 (HSV DNA polymerase; [3H]dGTP as competing substrate, gapped calf thymus DNA, read-out: IC50 (converted)) | IC50 (HSV DNA polymerase; [3H]dTTP as competing substrate, gapped calf thymus DNA, read-out: IC50 (converted)) | IC50 (HSV DNA polymerase; dCTP, dGTP, dTTP, range, read-out: IC50, incorporation of other [3H]dNTPs) | IC50 (HIV-1 RT; IC50, dATP (3.2 µM) as competing substrate) | IC50 (HSV DNA polymerase; [3H]dATP as competing substrate, gapped calf thymus DNA) | IC50 (HSV DNA polymerase; [3H]dCTP as competing substrate, gapped calf thymus DNA) | IC50 (HSV DNA polymerase; [3H]dGTP as competing substrate, gapped calf thymus DNA) | IC50 (HSV DNA polymerase; [3H]dTTP as competing substrate, gapped calf thymus DNA) | IC50, incorporation of other [3H]dNTPs (HSV DNA polymerase; dCTP, dGTP, dTTP, range) | IC50 (HIV-1 RT; dATP (3.2 µM) as competing substrate)
1 | Nc1ncnc2c1ncn2CCOCP(=O)(O)OP(=O)(O)OP(=O)(O)O [Adefovir-pp] | 0.993 µM | 3.92 µM | 3.46 µM | 4.85 µM | 3.46 to 4.85 µM | 0.923 µM |  |  |  |  |  | 
2 | C[C@@H](Cn1cnc2c(N)ncnc21)OCP(=O)(O)OP(=O)(O)OP(=O)(O)O [Tenofovir-pp] |  |  |  |  |  |  | 0.48 ± 0.04 µg/mL | 32 ± 2.2 µg/mL | 8.9 ± 6.3 µg/mL | 11 ± 4.8 µg/mL | 8.9 to 32 µg/mL | 0.43 ± 0.21 µg/mL
